One test deals with T1, RAIG3 (Homo sapiens, UniProt Q9NQ84).
T1 construct: expressed in transfected cells; host or cells: mouse insulinoma MIN6 cells, transient transfection with pIRES2-EGFP (CLONTECH) vector
Nature of the test: Insulin secretion in MIN6 cells having RAIG3 expressed forcibly (ELISA). The note with it: 0.6 mM 1,5-AG added to 2.8 mM glucose, FIG. 2b. It is filed as cell-based. The procedure:
(§1) Mouse insulinoma MIN6 cells (supplied by Dr. Junichi Miyazaki at the Division of Stem Cell Regulation Research, Department of Molecular Therapeutics, G6 Division of Pathophysiology and Therapeutics, Osaka University Graduate School of Medicine) were cultured in a 24-well plate containing a DMEM comprising 15% fetal calf serum (inactivated by treatment at 56° C. for 30 minutes), 5 μl/l β-mercaptoethanol and 4.5 g/l glucose, in an atmosphere of 5% CO2/95% air, at 37° C. and low density. cDNAs of RAIG2 and RAIG3 were obtained from a human brain or liver cDNA library by a conventional method of PCR. This was inserted into pIRES2-EGFP (CLONTECH). After 24 hours, the above-described cells were transfected with an expression vector containing the RAIG2 or RAIG3 cDNA. The transfection was performed using Lipofectamin 2000 (Invitrogen), as directed in the manufacturer's manual. After 48 hours of further cultivation, the cells were retained in a KRBB solution [129 mM NaCl, 4.8 mM KCl, 1.2 mM MgSO4, 1.2 mM KH2PO4, 4.8 mM NaHCO3, 10 mM HEPES, 2.5 mM CaCl2, 0.2% bovine serum albumin (pH adjusted to 7.4)] containing 2.8 mM glucose at 37° C. for 15 minutes, and then washed. […] Each 10 μl portion of the culture supernatant was taken, and the insulin content was measured by ELISA.

In the next test the target is T2, RAIG2 (Homo sapiens, UniProt Q9NZH0).
T2 construct: expressed in transfected cells; host or cells: mouse insulinoma MIN6 cells, transient transfection with pIRES2-EGFP (CLONTECH) vector
In words: Insulin secretion in MIN6 cells having RAIG2 expressed forcibly (ELISA). It is filed as cell-based, mouse. The note with it: 0.6 mM 1,5-AG added to 2.8 mM glucose, FIG. 2a. The procedure:
as §1
In general terms: ELISA stands for enzyme-linked immunosorbent assay.

T1 sequence (Q9NQ84 1-453 isoform Q9NQ84-2): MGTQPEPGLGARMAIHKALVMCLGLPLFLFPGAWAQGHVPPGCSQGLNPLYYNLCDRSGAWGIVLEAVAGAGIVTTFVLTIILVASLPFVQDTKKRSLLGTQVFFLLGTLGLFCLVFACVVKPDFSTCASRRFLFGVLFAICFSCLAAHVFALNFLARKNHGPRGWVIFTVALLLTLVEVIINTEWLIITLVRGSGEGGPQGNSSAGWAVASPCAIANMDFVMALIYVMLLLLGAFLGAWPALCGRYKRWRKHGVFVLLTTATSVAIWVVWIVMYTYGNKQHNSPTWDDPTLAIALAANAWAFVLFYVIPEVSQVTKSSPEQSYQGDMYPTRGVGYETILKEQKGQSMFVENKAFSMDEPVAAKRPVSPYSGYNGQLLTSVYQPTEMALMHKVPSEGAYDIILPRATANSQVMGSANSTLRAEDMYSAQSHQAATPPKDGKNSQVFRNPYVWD
T2 sequence (Q9NZH0 29-403): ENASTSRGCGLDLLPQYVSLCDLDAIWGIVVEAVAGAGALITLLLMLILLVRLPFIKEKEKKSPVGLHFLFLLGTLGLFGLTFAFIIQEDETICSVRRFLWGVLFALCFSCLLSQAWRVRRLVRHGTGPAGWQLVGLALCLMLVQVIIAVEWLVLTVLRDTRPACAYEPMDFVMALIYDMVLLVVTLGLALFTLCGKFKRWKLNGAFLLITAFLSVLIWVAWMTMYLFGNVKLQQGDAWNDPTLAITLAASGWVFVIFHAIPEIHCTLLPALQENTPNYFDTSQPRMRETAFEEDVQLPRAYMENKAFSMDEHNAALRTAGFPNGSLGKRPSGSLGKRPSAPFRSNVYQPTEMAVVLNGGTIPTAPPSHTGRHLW

With `OC[C@H]1OC[C@H](O)[C@@H](O)[C@@H]1O` [1,5-AG, 1,5-anhydroglucitol], the insulin release entry at RAIG3 and on RAIG2 was “insulin release equivalent to that with 20 mM glucose” each time.

The values above are taken from patent US20090170773A1, “NOVEL USE OF G-PROTEIN-CONJUGATED RECEPTOR AND LIGAND THEREOF” (RIKEN, priority 2006, published 2009).
